The values below come from patent US10676465B2, “GLP-1 receptor agonists and uses thereof” (Pfizer Inc., priority 2018, dated 2020).

Assay [1] addresses human GLP-1R (Homo sapiens (Human), UniProt P43220, L260F). In words: CHO GLP-1R Clone C6 - Assay 2 (HTRF cAMP agonist assay, low receptor density). The settings on record: for EC50: read-out: Assay 2 EC50, cAMP HTRF, geometric mean; for Emax: read-out: Assay 2 Emax (%), CHO GLP-1R Clone C6 (low receptor density).
Procedure: CHO GLP-1R Clone C6—Assay 2
GLP-1R-mediated agonist activity was determined with a cell-based functional assay utilizing an HTRF (Homogeneous Time-Resolved Fluorescence) cAMP detection kit (cAMP HI Range Assay Kit; Cis Bio cat #62AM6PEJ) that measures cAMP levels in the cell. The method is a competitive immunoassay between native cAMP produced by the cells and exogenous cAMP labeled with the dye d2. The tracer binding is visualized by a mAb anti-cAMP labeled with Cryptate. The specific signal (i.e. energy transfer) is inversely proportional to the concentration of cAMP in either a standard or an experimental sample.
The human GLP-1R coding sequence (NCBI Reference Sequence NP_002053.3, including naturally-occurring variant Leu260Phe) was subcloned into pcDNA5-FRT-TO and a clonal CHO cell line stably expressing a low receptor density was isolated using the Flp-In™ T-Rex™ System, as described by the manufacturer (ThermoFisher).
Cells were removed from cryopreservation, re-suspended in 40 mL of Dulbecco's Phosphate Buffered Saline (DPBS—Lonza Cat #17-512Q) and centrifuged at 800×g for 5 minutes at 22° C. The DPBS was aspirated, and the cell pellet was re-suspended in 10 mL of complete growth medium (DMEM:F12 1:1 Mixture with HEPES, L-Gln, 500 mL (DMEM/F12 Lonza Cat #12-719F), 10% heat inactivated fetal bovine serum (Gibco Cat #16140-071), 5 mL of 100× Pen-Strep (Gibco Cat #15140-122), 5 mL of 100×L-Glutamine (Gibco Cat #25030-081), 700 μg/mL Hygromycin (Invitrogen Cat #10687010) and 15 μg/mL Blasticidin (Gibco Cat # R21001). A 1 mL sample of the cell suspension in growth media was counted on a Becton Dickinson ViCell to determine cell viability and cell count per mL. The remaining cell suspension was then adjusted with growth media to deliver 1600 viable cells per well using a Matrix Combi Multidrop reagent dispenser, and the cells were dispensed into a white 384 well tissue culture treated assay plate (Corning 3570). The assay plate was then incubated for 48 hours at 37° C. in a humidified environment (95% O2, 5% CO2)
Varying concentrations of each compound to be tested (in DMSO) were diluted in assay buffer [HBSS with Calcium/Magnesium (Lonza/BioWhittaker cat #10-527F)/0.1% BSA (Sigma Aldrich cat # A7409-1L)/20 mM HEPES (Lonza/BioWhittaker cat #17-737E)] containing 100 μM 3-isobutyl-1-methylxanthin (IBMX; Sigma cat #15879). The final DMSO concentration in the compound/assay buffer mixture is 1%.
After 48 hours, the growth media was removed from the assay plate wells, and the cells were treated with 20 μL of the serially diluted compound in assay buffer for 30 minutes at 37° C. in a humidified environment (95% O2, 5% CO2). Following the 30 minute incubation, 10 μL of labeled d2 cAMP and 10 μL of anti-cAMP antibody (both diluted 1:20 in cell lysis buffer; as described in the manufacturer's assay protocol) were added to each well of the assay plate. The plates were then incubated at room temperature and after 60 minutes, changes in the HTRF signal were read with an Envision 2104 multi-label plate reader using excitation of 330 nm and emissions of 615 and 665 nm. Raw data were converted to nM cAMP by interpolation from a cAMP standard curve (as described in the manufacturer's assay protocol) and the percent effect was determined relative to a saturating concentration of the full agonist GLP-1 (1 μM) included on each plate. EC50 determinations were made from agonist dose response curves analyzed with a curve fitting program using a 4-parameter logistic dose response equation.
The target of assay [2] is human GLP-1R (Homo sapiens, UniProt P43220, G168S). The assay is described as follows: CHO GLP-1R Clone H6 - Assay 1 (HTRF cAMP agonist assay). The assay is classed as cell-based. Particulars: for EC50: CHO GLP-1R Clone H6, cAMP HTRF, geometric mean; for Emax / Assay 1 Emax (%): CHO GLP-1R Clone H6, arithmetic mean, relative to saturating GLP-1 (1 μM). A general note: In TR-FRET formats the signal depends on donor and acceptor labels being close together.
Chain of human GLP-1R (Homo sapiens, UniProt P43220, G168S) (P43220 24-463 G168S limits assumed): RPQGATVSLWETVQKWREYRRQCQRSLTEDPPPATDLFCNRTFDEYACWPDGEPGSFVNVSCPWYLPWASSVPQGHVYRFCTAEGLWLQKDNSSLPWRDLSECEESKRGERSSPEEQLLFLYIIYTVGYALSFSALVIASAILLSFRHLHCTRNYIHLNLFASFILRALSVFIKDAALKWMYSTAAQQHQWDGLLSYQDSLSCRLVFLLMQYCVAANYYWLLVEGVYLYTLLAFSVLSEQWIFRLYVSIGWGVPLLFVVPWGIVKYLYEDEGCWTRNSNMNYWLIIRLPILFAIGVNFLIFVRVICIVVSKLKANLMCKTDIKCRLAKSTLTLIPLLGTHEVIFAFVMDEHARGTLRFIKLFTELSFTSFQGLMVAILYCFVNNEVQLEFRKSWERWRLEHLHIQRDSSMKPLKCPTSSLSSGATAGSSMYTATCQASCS
Procedure: GLP-1R-mediated agonist activity was determined with a cell-based functional assay utilizing an HTRF (Homogeneous Time-Resolved Fluorescence) cAMP detection kit (cAMP HI Range Assay Kit; CisBio cat #62AM6PEJ) that measures cAMP levels in the cell. The method is a competitive immunoassay between native cAMP produced by the cells and exogenous cAMP labeled with the dye d2. The tracer binding is visualized by a mAb anti-cAMP labeled with Cryptate. The specific signal (i.e. energy transfer) is inversely proportional to the concentration of cAMP in either standard or experimental sample.
The human GLP-1R coding sequence (NCBI Reference Sequence NP_002053.3, including naturally-occurring variant Gly168Ser) was subcloned into pcDNA3 (Invitrogen) and a cell line stably expressing the receptor was isolated (designated Clone H6).
Cells were removed from cryopreservation, re-suspended in 40 mL of Dulbecco's Phosphate Buffered Saline (DPBS—Lonza Cat #17-512Q) and centrifuged at 800×g for 5 minutes at 22° C. The cell pellet was then re-suspended in 10 mL of growth medium [DMEM/F12 1:1 Mixture with HEPES, L-Gln, 500 mL (DMEM/F12 Lonza Cat #12-719F), 10% heat inactivated fetal bovine serum (Gibco Cat #16140-071), 5 mL of 100× Pen-Strep (Gibco Cat #15140-122), 5 mL of 100×L-Glutamine (Gibco Cat #25030-081) and 500 μg/mL Geneticin (G418) (Invitrogen #10131035)]. A 1 mL sample of the cell suspension in growth media was counted on a Becton Dickinson ViCell to determine cell viability and cell count per mL. The remaining cell suspension was then adjusted with growth media to deliver 2000 viable cells per well using a Matrix Combi Multidrop reagent dispenser, and the cells were dispensed into a white 384 well tissue culture treated assay plate (Corning 3570). The assay plate was then incubated for 48 hours at 37° C. in a humidified environment in 5% carbon dioxide.
Varying concentrations of each compound to be tested (in DMSO) were diluted in assay buffer (HBSS with Calcium/Magnesium (Lonza/BioWhittaker cat #10-527F)/0.1% BSA (Sigma Aldrich cat # A7409-1L)/20 mM HEPES (Lonza/BioWhittaker cat #17-737E) containing 100 μM 3-isobutyl-1-methylxanthin (IBMX; Sigma cat #15879). The final DMSO concentration is 1%.
After 48 hours, the growth media was removed from the assay plate wells, and the cells were treated with 20 μL of the serially diluted compound in assay buffer for 30 minutes at 37° C. in a humidified environment in 5% carbon dioxide. Following the 30 minute incubation, 10 μL of labeled d2 cAMP and 10 μL of anti-cAMP antibody (both diluted 1:20 in cell lysis buffer; as described in the manufacturer's assay protocol) were added to each well of the assay plate. The plates were then incubated at room temperature and after 60 minutes, changes in the HTRF signal were read with an Envision 2104 multi-label plate reader using excitation of 330 nm and emissions of 615 and 665 nm. Raw data were converted to nM cAMP by interpolation from a cAMP standard curve (as described in the manufacturer's assay protocol) and the percent effect was determined relative to a saturating concentration of the full agonist GLP-17-36 (1 μM) included on each plate. EC50 determinations were made from agonist dose-response curves analyzed with a curve fitting program using a 4-parameter logistic dose response equation.

The mark [3] stands for this setting: CHO GLP-1R Clone C6 (low receptor density).
Where [4] appears, read: arithmetic mean, relative to saturating GLP-1 (1 μM).

The structures appear in SMILES notation.

Chain of human GLP-1R (Homo sapiens (Human), UniProt P43220, L260F) (P43220 24-463 L260F): as the sequence (P43220 24-463 G168S limits assumed) above, with S145G, L237F counted along it

The EC50 is the concentration needed to bring the measured effect to its halfway point. The Emax is the maximal effect, on the per cent scale that the assay sets. As to `CC1(c2ccc(Cl)cc2F)Oc2cccc(C3CCN(Cc4nc5ccc(C(=O)O)nc5n4Cc4cnco4)CC3)c2O1` (stereo not shown) [Example 81, 2-({4-[2-(4-chloro-2-fluorophenyl)-2-methyl-1,3-benzodioxol-4-yl]piperidin-1-yl}methyl)-3-(1,3-oxazol-5-ylmethyl)-3H-imidazo[4,5-b]pyridine-5-carboxylic acid], the EC50 in assay [1] (setting [3]) stood at 0.054 µM; in assay [2] it was 0.029 µM. Moreover, the Emax in assay [1] (setting [4]) and in assay [2] was 110% in each case.
With `COCCn1c(CN2CCC(c3cccc4c3OC(C)(c3ccccc3)O4)CC2)nc2ccc(C(=O)O)cc21` (stereo not shown) [Example 82, 1-(2-methoxyethyl)-2-{[4-(2-methyl-2-phenyl-1,3-benzodioxol-4-yl)piperidin-1-yl]methyl}-1H-benzimidazole-6-carboxylic acid], the EC50 in assay [1] (setting [3]) was determined as 1 µM; in assay [2], 0.047 µM. Also, the Emax in assay [1] (setting [4]) and in assay [2] was 83% each time.
Consider `COCCn1c(CN2CCC(c3cccc4c3OC(C)(c3ccc(OC)cc3Cl)O4)CC2)nc2ccc(C(=O)O)cc21` (stereo not shown) [Example 83, 2-({4-[2-(2-chloro-4-methoxyphenyl)-2-methyl-1,3-benzodioxol-4-yl]piperidin-1-yl}methyl)-1-(2-methoxyethyl)-1H-benzimidazole-6-carboxylic acid], for which the values for the 50% effective concentration (EC50) in assay [1] (setting [3]) and in assay [2] were 0.044 µM and 0.0034 µM, respectively. Besides, the Emax in assay [1] (setting [4]) came to 88%; in assay [2], 85%.
On the same counts, the results for `COCCn1c(CN2CCC(c3cccc4c3OC(C)(c3ccc(C)cc3)O4)CC2)nc2ccc(C(=O)O)cc21` (stereo not shown) [Example 84, 1-(2-methoxyethyl)-2-({4-[2-methyl-2-(4-methylphenyl)-1,3-benzodioxol-4-yl]piperidin-1-yl}methyl)-1H-benzimidazole-6-carboxylic acid] are 0.1 µM, 0.0091 µM, 86% and 93%.
For `COCCn1c(CN2CCC(c3cccc4c3OC(C)(c3ccccc3Cl)O4)CC2)nc2ccc(C(=O)O)cc21` (stereo not shown) [Example 86, 2-({4-[2-(2-chlorophenyl)-2-methyl-1,3-benzodioxol-4-yl]piperidin-1-yl}methyl)-1-(2-methoxyethyl)-1H-benzimidazole-6-carboxylic acid], the EC50 in assay [1] (setting [3]) was 0.41 µM; in assay [2], 0.024 µM. For the same molecule, the Emax in assay [1] (setting [4]) amounted to 100%; in assay [2], 91%.
For the molecule `COCCn1c(CN2CCC(c3cccc4c3OC(C)(c3ccccc3C)O4)CC2)nc2ccc(C(=O)O)cc21` (stereo not shown) [Example 88, 1-(2-methoxyethyl)-2-({4-[2-methyl-2-(2-methylphenyl)-1,3-benzodioxol-4-yl]piperidin-1-yl}methyl)-1H-benzimidazole-6-carboxylic acid], the EC50 in assay [1] (setting [3]) amounted to 0.36 µM; in assay [2], 0.017 µM. Moreover, the Emax came out at 91% in assay [1] (setting [4]) and 86% in assay [2].
For the molecule `COCCn1c(CN2CCC(c3cccc4c3OC(C)(c3ccccn3)O4)CC2)nc2ccc(C(=O)O)cc21` (stereo not shown) [Example 89, 1-(2-methoxyethyl)-2-({4-[2-methyl-2-(pyridin-2-yl)-1,3-benzodioxol-4-yl]piperidin-1-yl}methyl)-1H-benzimidazole-6-carboxylic acid], the EC50 came to 2.9 µM in assay [1] (setting [3]) and 0.13 µM in assay [2]. Also, the Emax in assay [1] (setting [4]) was determined as 87%; in assay [2], 85%.
Take `COCCn1c(CN2CCC(c3cccc4c3OC(C)(c3ccc(Cl)cn3)O4)CC2)nc2ccc(C(=O)O)cc21` (stereo not shown) [Example 91, ammonium 2-({4-[2-(5-chloropyridin-2-yl)-2-methyl-1,3-benzodioxol-4-yl]piperidin-1-yl}methyl)-1-(2-methoxyethyl)-1H-benzimidazole-6-carboxylate]: the EC50 in assay [1] (setting [3]) was > 20 µM. Besides, in assay [2], the midpoint of the response, the EC50, lay at 14 µM and the Emax amounted to 100%.
As for `COCCn1c(CN2CCC(c3cccc4c3OC(C)(c3ccc(Cl)cn3)O4)CC2)nc2ccc(C(=O)O)cc21.N` (stereo not shown) [Example 92, ammonium 2-({4-[2-(5-chloropyridin-2-yl)-2-methyl-1,3-benzodioxol-4-yl]piperidin-1-yl}methyl)-1-(2-methoxyethyl)-1H-benzimidazole-6-carboxylate], in assay [1] (setting [3]), the EC50 was found to be 0.072 µM. The Emax in assay [1] (setting [4]) came out at 83%. For the same molecule, in assay [2], a half-maximal response (EC50) required 0.0042 µM and the “Assay 1 Emax (%)” value came out at 90%.
As to `COCCn1c(CN2CCC(c3cccc4c3OC(C)(c3ccc(C#N)cn3)O4)CC2)nc2ccc(C(=O)O)cc21` (stereo not shown) [Example 93, ammonium 2-({4-[2-(5-cyanopyridin-2-yl)-2-methyl-1,3-benzodioxol-4-yl]piperidin-1-yl}methyl)-1-(2-methoxyethyl)-1H-benzimidazole-6-carboxylate], the EC50 in assay [1] (setting [3]) is > 20 µM; in assay [2], > 6.5 µM. The molecule also displayed an Emax in assay [2] of 84%.
As to `COCCn1c(CN2CCC(c3cccc4c3OC(C)(c3ccc(C#N)cn3)O4)CC2)nc2ccc(C(=O)O)cc21` (stereo not shown) [Example 94, ammonium 2-({4-[2-(5-cyanopyridin-2-yl)-2-methyl-1,3-benzodioxol-4-yl]piperidin-1-yl}methyl)-1-(2-methoxyethyl)-1H-benzimidazole-6-carboxylate], the EC50 was found to be 0.36 µM in assay [1] (setting [3]) and 0.012 µM in assay [2]. Moreover, the Emax in assay [1] (setting [4]) is 87%.
For the molecule `CC1(c2ccc(C#N)cc2F)Oc2cccc(C3CCN(Cc4nc5ccc(C(=O)O)cc5n4Cc4ncco4)CC3)c2O1` (stereo not shown) [Example 98, ammonium 2-({4-[2-(4-cyano-2-fluorophenyl)-2-methyl-1,3-benzodioxol-4-yl]piperidin-1-yl}methyl)-1-(1,3-oxazol-2-ylmethyl)-1H-benzimidazole-6-carboxylate], the values for the EC50 in assay [1] (setting [3]) and in assay [2] were 0.44 µM and 0.05 µM, respectively. Moreover, the Emax in assay [1] (setting [4]) amounted to 95%; in assay [2] it was 97%.
Consider `CC1(c2ccc(C#N)cc2F)Oc2cccc(C3CCN(Cc4nc5ccc(C(=O)O)cc5n4Cc4ncco4)CC3)c2O1.N` (stereo not shown) [Example 99, ammonium 2-({4-[2-(4-cyano-2-fluorophenyl)-2-methyl-1,3-benzodioxol-4-yl]piperidin-1-yl}methyl)-1-(1,3-oxazol-2-ylmethyl)-1H-benzimidazole-6-carboxylate], for which the “Assay 2 Emax (%)” value in assay [1] (CHO GLP-1R Clone C6 (low receptor density), arithmetic mean, relative to saturating GLP-1 (1 μM)) is 91%. Also, in assay [1] (setting [3]), the EC50 turned out to be 0.0054 µM. Further, in assay [2], the EC50 was 0.0028 µM and the “Assay 1 Emax (%)” value is recorded as 99%.
